Measured values published in US4180658A, “7[-2-Alkoxyamino(acetamido)]cephalosporin derivatives” (Bristol-Myers Company, priority 1978, dated 1979).
In brackets after ≈: the same amount, converted by molar mass. Read-outs that look alike come from different tables or passages of the source.

Legend:
S. pneumoniae = assay: Antibiotic Activity in Nutrient Broth (MIC); type: cell-based; details: Streptococcus pneumoniae, 10^-3 dilution of overnight broth culture, 45% AAB + 5% serum + 50% broth
Method: (§1) Biological testing was performed according to the procedures described by F. Leitner et al., Antimicrobial Agents and Chemotherapy 10(3), 426-435 (September, 1976).
(§2) Antibiotic Activity in Nutrient Broth
(§3) *45% AAB + 5% serum + 50% broth listed above.
(§4) **Dilution of overnight broth culture.

Str. pyogenes = assay: Antibiotic Activity in Nutrient Broth (MIC); type: cell-based; details: Streptococcus pyogenes, 10^-3 dilution, 45% AAB + 5% serum + 50% broth
Method: as §1, §2, §3, §4

E. coli Juhl = assay: Antibiotic Activity in Nutrient Broth (MIC); type: cell-based; details: Escherichia coli, 10^-4 dilution
Method: as §1, §2, §4

Ent. cloacae = assay: Antibiotic Activity in Nutrient Broth (MIC); type: cell-based
Method: as §1, §2, §4

K. pneumoniae = assay: Antibiotic Activity in Nutrient Broth (MIC); type: cell-based; details: 10^-4 dilution
Method: as §1, §2, §4

Pr. mirabilis = assay: Antibiotic Activity in Nutrient Broth (MIC); type: cell-based
Method: as §1, §2, §4

Pr. morganii = assay: Antibiotic Activity in Nutrient Broth (MIC); type: cell-based; details: Morganella morganii, 10^-4 dilution
Method: as §1, §2, §4

Pr. rettgeri = assay: Antibiotic Activity in Nutrient Broth (MIC); type: cell-based; details: Providencia rettgeri, Table 1, 10^-4 dilution
Method: as §1, §2, §4

Pr. vulgaris = assay: Antibiotic Activity in Nutrient Broth (MIC); type: cell-based; details: Proteus vulgaris, Table 1, 10^-4 dilution
Method: as §1, §2, §4

Ps. aeruginosa carb. = assay: Antibiotic Activity in Nutrient Broth (MIC); type: cell-based; details: Pseudomonas aeruginosa, Table 1, 10^-4 dilution
Method: as §1, §2, §4

Ps. aeruginosa = assay: Antibiotic Activity in Nutrient Broth (MIC); type: cell-based; details: 10^-4 dilution
Method: as §1, §2, §4

S. aureus BX1633 = assay: Antibiotic Activity in Nutrient Broth (MIC); type: cell-based; details: Staphylococcus aureus
Method: as §1, §2, §4

S. aureus Meth-Res = assay: Antibiotic Activity in Nutrient Broth (MIC); type: cell-based; details: Staphylococcus aureus, 10^-3 dilution
Method: as §1, §2, §4

S. aureus Smith = assay: Antibiotic Activity in Nutrient Broth (MIC); type: cell-based; details: Staphylococcus aureus, 10^-4 dilution
Method: as §1, §2, §4

Sal. enteritidis = assay: Antibiotic Activity in Nutrient Broth (MIC); type: cell-based; details: Salmonella enterica, Table 1, 10^-4 dilution
Method: as §1, §2, §4

Ser. marcescens = assay: Antibiotic Activity in Nutrient Broth (MIC); type: cell-based
Method: as §1, §2, §4

Str. faecalis = assay: Antibiotic Activity in Nutrient Broth (MIC); type: cell-based; details: Enterococcus faecalis, Table 1, 10^-4 dilution
Method: as §1, §2, §4

Enterobacter species = assay: Secondary in vitro Screening (MIC); type: cell-based; details: Table 2
Method: as §1

Klebsiella pneumoniae = assay: Secondary in vitro Screening (MIC); type: cell-based; details: Table 2, each line another isolate
Method: as §1

Pseudomonas aeruginosa = assay: Secondary in vitro Screening (MIC); type: cell-based; details: Table 2, each line another isolate
Method: as §1

Staphylococcus aureus = assay: Secondary in vitro Screening (MIC); type: cell-based; details: Table 2, each line another isolate
Method: as §1

Mouse Blood Levels = type: in vivo; details: im, 40 mg/kg, IM 40 mgm./kg., phosphate buffer; for concentration at 0.25 h: 0.25 hours after administration; for concentration at 0.5 h: 0.5 hours after administration; for concentration at 1 h: 1 hour after administration; for concentration at 1.5 h: 1.5 hours after administration
Method: as §1
*Each group consisted of 6 animals and one blood sample was taken from
(§5) Compounds prepared in phosphate buffer and dosed IM at 40 mgm./kg.
Assay Organism: B. subtilis at pH 6.0

[1] = Solubility (dosing preparation in phosphate buffer); type: physicochemical; details: compounds prepared in phosphate buffer for dosing
Text: as §5

S. aureus = assay: Antibiotic Activity in Nutrient Broth + 50% serum (MIC); type: cell-based; details: Staphylococcus aureus, Table 1, 10^-4 dilution
Method: as §1, §2, §4

Haemophilus influenzae = assay: Secondary in vitro Screening (MIC); type: cell-based; details: Table 3, each line another isolate
Method: as §1

[2] = Table 1, second pair of columns
[3] = Enterobacter cloacae, Table 1, 10^-4 dilution, read-out: MIC
[4] = Klebsiella pneumoniae, Table 1, first pair of columns, read-out: MIC
[5] = Proteus mirabilis, Table 1, 10^-4 dilution, read-out: MIC
[6] = Table 1, second pair of columns, 10^-4 dilution
[7] = Pseudomonas aeruginosa, Table 1, first pair of columns, read-out: MIC
[8] = BX1633, Table 1, 10^-2 dilution
[9] = BX1633, Table 1, 10^-3 dilution
[10] = BX1633, Table 1, second pair of columns, 10^-2 dilution
[11] = Serratia marcescens, Table 1, 10^-4 dilution, read-out: MIC
[12] = first pair of lines (Example 1B susp.)
[13] = second pair of lines (Example 1B sol.)

CO/N=C(\C(=O)N[C@@H]1C(=O)N2C(C(=O)O)=C(COC(N)=O)CS[C@H]12)c1ccco1 [Cefuroxime, sodium 6R,7R3-carbamoyloxymethyl-7-(2Z)-2-methoxyimino(fur-2-yl)acetamidoceph-3-m-4-carboxylate, reference compound] showed an MIC (S. pneumoniae; Table 1, first pair of columns) of 0.004 µg/mL, an MIC (S. pneumoniae; [2]) of 0.004 µg/mL and an MIC (Str. pyogenes; Table 1, first pair of columns) of 0.004 µg/mL. It also gave an MIC (Str. pyogenes; [2]) of 0.004 µg/mL, an MIC (E. coli Juhl; Table 1, first pair of columns) of 4 µg/mL and an MIC (E. coli Juhl; [2]) of 8 µg/mL. For the same molecule, the MIC (Ent. cloacae; [3]) was over 125 µg/mL, the MIC (K. pneumoniae; [4]) was 2 µg/mL and the MIC (Pr. mirabilis; [5]) was 0.5 µg/mL. The MIC (Pr. mirabilis; [6]) was 0.5 µg/mL, the MIC (Pr. morganii; Table 1, first pair of columns) was 32 µg/mL and the MIC (Pr. morganii; [2]) was 63 µg/mL. For the same molecule, the MIC (Pr. rettgeri) was 16 µg/mL, the MIC (Pr. vulgaris) was 1 µg/mL and the MIC (Ps. aeruginosa carb.) was over 1000 µg/mL. The MIC (Ps. aeruginosa; [7]) was over 125 µg/mL, the MIC (S. aureus BX1633; [8]) was 0.5 µg/mL and the MIC (S. aureus BX1633; [9]) was 0.5 µg/mL. It also gave an MIC (S. aureus BX1633; [10]) of 2 µg/mL, an MIC (S. aureus Meth-Res; Table 1, first pair of columns) of 2 µg/mL and an MIC (S. aureus Meth-Res; [2]) of over 125 µg/mL. The MIC (S. aureus Smith; Table 1, first pair of columns) was 0.13 µg/mL, the MIC (S. aureus Smith; [2]) was 0.5 µg/mL and the MIC (Sal. enteritidis) was 0.5 µg/mL. The MIC (Ser. marcescens; [11]) was over 125 µg/mL, the MIC (Ser. marcescens; [6]) was over 125 µg/mL and the MIC (Str. faecalis) was over 125 µg/mL. For the same molecule, the MIC (Enterobacter species) was 2 µg/mL, the MIC (Klebsiella pneumoniae) was 2 µg/mL and the MIC (Pseudomonas aeruginosa) was 125 µg/mL. The MIC (Staphylococcus aureus) was 0.5 µg/mL, the concentration at 0.25 h (Mouse Blood Levels; [12]) was 34500 ng/mL and the concentration at 0.25 h (Mouse Blood Levels; [13]) was 25600 ng/mL. The concentration at 0.5 h (Mouse Blood Levels; [12]) was 26300 ng/mL, the concentration at 0.5 h (Mouse Blood Levels; [13]) was 20600 ng/mL and the concentration at 1 h (Mouse Blood Levels; [12]) was 7600 ng/mL. It also gave a concentration at 1 h (Mouse Blood Levels; [13]) of 6000 ng/mL, a concentration at 1.5 h (Mouse Blood Levels; [12]) of 3100 ng/mL and a concentration at 1.5 h (Mouse Blood Levels; [13]) of 2100 ng/mL. For the same molecule, the Solubility [1] was “sol”.

CO/N=C(\C(=O)N[C@@H]1C(=O)N2C(C(=O)O)=C(CSc3nnnn3CCN)CS[C@H]12)c1ccco1 [Example 1B, 7-(α-Methoxyiminofurylacetamido)-3-(1-[2'-aminoethyl]-tetrazol-5-ylthiomethyl)-3-cephem-4-carboxylic Acid] gave an MIC (S. pneumoniae; Table 1, first pair of columns) of 0.008 µg/mL, an MIC (S. pneumoniae; [2]) of 0.004 µg/mL and an MIC (Str. pyogenes; Table 1, first pair of columns) of 0.008 µg/mL. For the same molecule, the MIC (Str. pyogenes; [2]) was 0.004 µg/mL, the MIC (E. coli Juhl; Table 1, first pair of columns) was 8 µg/mL (≈ 15.7 µM) and the MIC (E. coli Juhl; [2]) was 2 µg/mL (≈ 3.93 µM). The MIC (Ent. cloacae; [3]) was 16 µg/mL (≈ 31.5 µM), the MIC (Ent. cloacae; [6]) was 8 µg/mL (≈ 15.7 µM) and the MIC (K. pneumoniae; [4]) was 1 µg/mL (≈ 1.97 µM). For the same molecule, the MIC (K. pneumoniae; Klebsiella pneumoniae, Table 1, second pair of columns, read-out: MIC) was 16 µg/mL (≈ 31.5 µM), the MIC (K. pneumoniae; Table 1, first pair of columns) was 2 µg/mL (≈ 3.93 µM) and the MIC (K. pneumoniae; [2]) was 32 µg/mL (≈ 62.9 µM). It also gave an MIC (Pr. mirabilis; [5]) of 0.5 µg/mL (≈ 0.983 µM), an MIC (Pr. mirabilis; [6]) of 0.5 µg/mL (≈ 0.983 µM) and an MIC (Pr. morganii; Table 1, first pair of columns) of 2 µg/mL (≈ 3.93 µM). It also gave an MIC (Pr. morganii; [2]) of 1 µg/mL (≈ 1.97 µM), an MIC (Pr. rettgeri) of 1 µg/mL (≈ 1.97 µM) and an MIC (Pr. vulgaris) of 0.5 µg/mL (≈ 0.983 µM). For the same molecule, the MIC (Ps. aeruginosa carb.) was 250 µg/mL (≈ 492 µM), the MIC (Ps. aeruginosa; [7]) was 125 µg/mL (≈ 246 µM) and the MIC (Ps. aeruginosa; Pseudomonas aeruginosa, Table 1, second pair of columns, read-out: MIC) was 63 µg/mL (≈ 124 µM). The MIC (Ps. aeruginosa; [2]) was 125 µg/mL (≈ 246 µM), the MIC (S. aureus BX1633; [8]) was 1 µg/mL (≈ 1.97 µM) and the MIC (S. aureus BX1633; [9]) was 0.5 µg/mL (≈ 0.983 µM). For the same molecule, the MIC (S. aureus BX1633; [10]) was 0.5 µg/mL (≈ 0.983 µM), the MIC (S. aureus Meth-Res; Table 1, first pair of columns) was 2 µg/mL (≈ 3.93 µM) and the MIC (S. aureus Meth-Res; [2]) was over 125 µg/mL. For the same molecule, the MIC (S. aureus Smith; Table 1, first pair of columns) was 0.5 µg/mL (≈ 0.983 µM), the MIC (S. aureus Smith; [2]) was 0.5 µg/mL (≈ 0.983 µM) and the MIC (Sal. enteritidis) was at most 0.25 µg/mL. The MIC (Ser. marcescens; [11]) was 8 µg/mL (≈ 15.7 µM), the MIC (Ser. marcescens; [6]) was 8 µg/mL (≈ 15.7 µM) and the MIC (Str. faecalis) was 63 µg/mL (≈ 124 µM). The MIC (S. aureus) was 1 µg/mL, the MIC (Enterobacter species) was 2 µg/mL (≈ 3.93 µM) and the MIC (Haemophilus influenzae) was 0.5 µg/mL (≈ 0.983 µM). For the same molecule, the MIC (Klebsiella pneumoniae) was 2 µg/mL (≈ 3.93 µM), the MIC (Pseudomonas aeruginosa) was over 63 µg/mL and the concentration at 0.25 h (Mouse Blood Levels; [12]) was 35000 ng/mL. For the same molecule, the concentration at 0.25 h (Mouse Blood Levels; [13]) was 33600 ng/mL, the concentration at 0.5 h (Mouse Blood Levels; [12]) was 17900 ng/mL and the concentration at 0.5 h (Mouse Blood Levels; [13]) was 17400 ng/mL. The concentration at 1 h (Mouse Blood Levels; [12]) was 5400 ng/mL, the concentration at 1 h (Mouse Blood Levels; [13]) was 3900 ng/mL and the concentration at 1.5 h (Mouse Blood Levels; [12]) was under 2500 ng/mL. The concentration at 1.5 h (Mouse Blood Levels; [13]) was under 2600 ng/mL and the Solubility [1] was “susp. and sol”.
